In ChEMBL document CHEMBL5058644, “Data for DCP probe JNJ-39758979” (2022):

Legend:
[1] = target: Tyrosine-protein kinase ABL1 (Homo sapiens) (UniProt P00519); assay: Abl(h) Millipore kinase panel; conditions: Compound concentration 10.0 uM
[2] = target: Glycogen synthase kinase-3 beta (Homo sapiens) (UniProt P49841); assay: GSK3β(h) Millipore kinase panel; conditions: Compound concentration 10.0 uM
[3] = target: Serine/threonine-protein kinase Sgk1 (Homo sapiens) (UniProt O00141); assay: SGK(h) Millipore kinase panel; conditions: Compound concentration 10.0 uM
[4] = target: Galanin receptor type 2 (Homo sapiens) (UniProt O43603); assay: GAL2 (h) CEREP panel; conditions: Compound concentration 1.0 uM
Galanin receptor type 2 (Homo sapiens), sequence (O43603 whole entry): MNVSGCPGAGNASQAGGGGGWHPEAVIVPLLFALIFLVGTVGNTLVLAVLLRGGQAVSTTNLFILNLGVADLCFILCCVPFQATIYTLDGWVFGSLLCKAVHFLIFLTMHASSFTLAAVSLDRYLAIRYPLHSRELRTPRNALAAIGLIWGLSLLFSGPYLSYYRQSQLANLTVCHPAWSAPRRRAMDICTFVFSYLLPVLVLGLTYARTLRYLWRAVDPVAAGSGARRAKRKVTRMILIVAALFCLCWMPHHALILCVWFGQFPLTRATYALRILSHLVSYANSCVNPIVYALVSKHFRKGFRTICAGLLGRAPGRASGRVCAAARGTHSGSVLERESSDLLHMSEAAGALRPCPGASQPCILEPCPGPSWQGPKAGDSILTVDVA

[5] = target: RAF proto-oncogene serine/threonine-protein kinase (Homo sapiens) (UniProt P04049); assay: c-RAF(h) Millipore kinase panel; conditions: Compound concentration 10.0 uM
RAF proto-oncogene serine/threonine-protein kinase (Homo sapiens), sequence (P04049 whole entry): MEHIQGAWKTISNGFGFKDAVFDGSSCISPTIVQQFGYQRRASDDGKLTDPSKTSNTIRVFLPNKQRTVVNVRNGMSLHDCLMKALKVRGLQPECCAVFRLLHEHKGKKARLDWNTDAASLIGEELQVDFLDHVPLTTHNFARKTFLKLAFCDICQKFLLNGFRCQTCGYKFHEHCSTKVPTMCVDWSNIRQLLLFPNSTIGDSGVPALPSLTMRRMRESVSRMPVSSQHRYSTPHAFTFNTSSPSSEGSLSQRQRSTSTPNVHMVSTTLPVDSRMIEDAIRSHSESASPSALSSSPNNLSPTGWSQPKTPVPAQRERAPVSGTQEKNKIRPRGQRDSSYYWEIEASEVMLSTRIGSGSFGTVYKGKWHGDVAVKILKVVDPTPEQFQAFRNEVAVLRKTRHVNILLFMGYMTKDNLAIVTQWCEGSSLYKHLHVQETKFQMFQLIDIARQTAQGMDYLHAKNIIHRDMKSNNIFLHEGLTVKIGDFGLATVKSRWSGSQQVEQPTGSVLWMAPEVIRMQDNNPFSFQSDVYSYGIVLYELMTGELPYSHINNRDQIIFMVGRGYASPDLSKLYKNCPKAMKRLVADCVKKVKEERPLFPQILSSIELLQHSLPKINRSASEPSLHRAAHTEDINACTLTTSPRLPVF

[6] = target: Interleukin-1 receptor-associated kinase 4 (Homo sapiens) (UniProt Q9NWZ3); assay: IRAK4(h) Millipore kinase panel; conditions: Compound concentration 10.0 uM
[7] = target: Glycogen synthase kinase-3 alpha (Homo sapiens) (UniProt P49840); assay: GSK3α(h) Millipore kinase panel; conditions: Compound concentration 10.0 uM
[8] = target: High affinity nerve growth factor receptor (Homo sapiens) (UniProt P04629); assay: TrkA(h) Millipore kinase panel; conditions: Compound concentration 10.0 uM
[9] = Cl- channel CEREP panel; conditions: Compound concentration 1.0 uM
[10] = target: C-C chemokine receptor type 1 (Homo sapiens) (UniProt P32246); assay: CCR1 (h) CEREP panel; conditions: Compound concentration 1.0 uM
[11] = target: Endothelin-1 receptor (Homo sapiens) (UniProt P25101); assay: ETA (h) CEREP panel; conditions: Compound concentration 1.0 uM
[12] = target: Adenosine receptor A2a (Homo sapiens) (UniProt P29274); assay: A2A (h) CEREP panel; conditions: Compound concentration 1.0 uM
Adenosine receptor A2a (Homo sapiens), sequence (P29274 whole entry): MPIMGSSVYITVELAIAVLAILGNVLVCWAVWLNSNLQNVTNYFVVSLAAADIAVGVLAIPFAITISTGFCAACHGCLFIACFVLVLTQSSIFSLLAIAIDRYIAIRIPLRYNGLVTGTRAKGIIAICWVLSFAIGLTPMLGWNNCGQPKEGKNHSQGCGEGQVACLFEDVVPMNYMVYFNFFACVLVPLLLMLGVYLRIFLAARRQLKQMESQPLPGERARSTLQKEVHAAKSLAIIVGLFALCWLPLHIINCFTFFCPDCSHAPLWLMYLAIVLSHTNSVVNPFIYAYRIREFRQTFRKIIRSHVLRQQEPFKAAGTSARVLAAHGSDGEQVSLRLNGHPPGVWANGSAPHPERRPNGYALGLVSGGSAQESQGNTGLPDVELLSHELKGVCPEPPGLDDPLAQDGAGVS

[13] = target: Proto-oncogene tyrosine-protein kinase ROS (Homo sapiens) (UniProt P08922); assay: Ros(h) Millipore kinase panel; conditions: Compound concentration 10.0 uM
[14] = sst (non-selective) CEREP panel; conditions: Compound concentration 1.0 uM
[15] = target: Neuropeptide Y receptor type 2 (Homo sapiens) (UniProt P49146); assay: Y2 (h) CEREP panel; conditions: Compound concentration 1.0 uM
Neuropeptide Y receptor type 2 (Homo sapiens), sequence (P49146 whole entry): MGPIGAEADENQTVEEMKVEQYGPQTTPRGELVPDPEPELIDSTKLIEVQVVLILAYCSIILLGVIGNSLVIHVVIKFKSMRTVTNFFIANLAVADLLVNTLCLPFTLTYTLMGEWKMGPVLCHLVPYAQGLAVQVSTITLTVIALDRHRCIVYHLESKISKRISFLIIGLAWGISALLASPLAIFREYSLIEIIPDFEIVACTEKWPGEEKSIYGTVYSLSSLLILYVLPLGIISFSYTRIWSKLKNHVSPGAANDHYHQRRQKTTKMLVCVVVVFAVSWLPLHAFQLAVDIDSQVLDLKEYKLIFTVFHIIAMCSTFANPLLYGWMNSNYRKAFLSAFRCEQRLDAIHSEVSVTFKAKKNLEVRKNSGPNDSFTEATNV

[16] = target: Histamine H1 receptor (Homo sapiens) (UniProt P35367); assay: H1 (h) CEREP panel; conditions: Compound concentration 1.0 uM
Homo sapiens = species on record: Homo sapiens; assay: CK2(h) Millipore kinase panel; conditions: Compound concentration 10.0 uM
[17] = target: Neurotensin receptor type 1 (Homo sapiens) (UniProt P30989); assay: NT1 (h) (NTS1) CEREP panel; conditions: Compound concentration 1.0 uM
[18] = Ca2+ channel CEREP panel; conditions: Compound concentration 1.0 uM
[19] = target: Vasoactive intestinal polypeptide receptor 1 (Homo sapiens) (UniProt P32241); assay: VIP1 (h) (VPAC1) CEREP panel; conditions: Compound concentration 1.0 uM
[20] = target: Ephrin type-A receptor 1 (Homo sapiens) (UniProt P21709); assay: EphA1(h) Millipore kinase panel; conditions: Compound concentration 10.0 uM
[21] = target: 5-hydroxytryptamine receptor 1B (Homo sapiens) (UniProt P28222); assay: 5-HT1B CEREP panel; conditions: Compound concentration 1.0 uM
[22] = target: Serine/threonine-protein kinase DCLK2 (Homo sapiens) (UniProt Q8N568); assay: DCAMKL2(h) Millipore kinase panel; conditions: Compound concentration 10.0 uM
[23] = target: Serine/threonine-protein kinase pim-1 (Homo sapiens) (UniProt P11309); assay: Pim-1(h) Millipore kinase panel; conditions: Compound concentration 10.0 uM
Rattus norvegicus = species on record: Rattus norvegicus; assay: AMPK(r) Millipore kinase panel; conditions: Compound concentration 10.0 uM
[24] = target: Kappa-type opioid receptor (Homo sapiens) (UniProt P41145); assay: kappa (h) CEREP panel; conditions: Compound concentration 1.0 uM
[25] = target: Substance-K receptor (Homo sapiens) (UniProt P21452); assay: NK2 (h) CEREP panel; conditions: Compound concentration 1.0 uM
[26] = MT1 CEREP panel; conditions: Compound concentration 1.0 uM
[27] = K+V channel CEREP panel; conditions: Compound concentration 1.0 uM
[28] = target: Testis-specific serine/threonine-protein kinase 1 (Homo sapiens) (UniProt Q9BXA7); assay: TSSK1(h) Millipore kinase panel; conditions: Compound concentration 10.0 uM
Testis-specific serine/threonine-protein kinase 1 (Homo sapiens), sequence (Q9BXA7 whole entry): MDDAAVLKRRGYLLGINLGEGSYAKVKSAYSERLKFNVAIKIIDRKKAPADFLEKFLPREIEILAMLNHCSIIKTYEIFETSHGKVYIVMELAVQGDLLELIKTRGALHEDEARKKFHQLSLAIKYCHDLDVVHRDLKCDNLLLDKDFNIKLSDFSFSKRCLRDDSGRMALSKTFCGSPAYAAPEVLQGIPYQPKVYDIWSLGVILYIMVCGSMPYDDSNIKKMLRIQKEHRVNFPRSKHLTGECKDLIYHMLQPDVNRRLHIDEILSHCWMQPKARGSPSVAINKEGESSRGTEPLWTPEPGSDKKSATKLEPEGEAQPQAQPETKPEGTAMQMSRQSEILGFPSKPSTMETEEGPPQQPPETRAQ

[29] = target: RAC-beta serine/threonine-protein kinase (Homo sapiens) (UniProt P31751); assay: PKBβ(h) Millipore kinase panel; conditions: Compound concentration 10.0 uM
[30] = target: Mu-type opioid receptor (Homo sapiens) (UniProt P35372); assay: mu (h) CEREP panel; conditions: Compound concentration 1.0 uM
[31] = target: Delta-type opioid receptor (Homo sapiens) (UniProt P41143); assay: delta (h) CEREP panel; conditions: Compound concentration 1.0 uM
[32] = target: Cyclin-dependent kinase 2 (Homo sapiens) (UniProt P24941); assay: CDK2/cyclinA(h) Millipore kinase panel; conditions: Compound concentration 10.0 uM
[33] = target: Discoidin domain-containing receptor 2 (Homo sapiens) (UniProt Q16832); assay: DDR2(h) Millipore kinase panel; conditions: Compound concentration 10.0 uM
[34] = target: Beta-1 adrenergic receptor (Homo sapiens) (UniProt P08588); assay: beta 1 (h) CEREP panel; conditions: Compound concentration 1.0 uM
[35] = target: Neuropeptide Y receptor type 1 (Homo sapiens) (UniProt P25929); assay: Y1 (h) CEREP panel; conditions: Compound concentration 1.0 uM
Neuropeptide Y receptor type 1 (Homo sapiens), sequence (P25929 whole entry): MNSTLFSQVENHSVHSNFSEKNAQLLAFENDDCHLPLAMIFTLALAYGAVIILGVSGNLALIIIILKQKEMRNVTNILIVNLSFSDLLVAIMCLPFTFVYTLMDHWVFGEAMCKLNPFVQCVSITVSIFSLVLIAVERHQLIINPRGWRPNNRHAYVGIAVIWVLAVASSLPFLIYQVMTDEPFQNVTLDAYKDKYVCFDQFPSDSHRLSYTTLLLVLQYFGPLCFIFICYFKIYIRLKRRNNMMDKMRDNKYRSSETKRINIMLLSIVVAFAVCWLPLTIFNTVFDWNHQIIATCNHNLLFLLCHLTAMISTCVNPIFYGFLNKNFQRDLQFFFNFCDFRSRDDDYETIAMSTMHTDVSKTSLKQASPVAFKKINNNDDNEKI

[36] = target: Serine/threonine-protein kinase D2 (Homo sapiens) (UniProt Q9BZL6); assay: PKD2(h) Millipore kinase panel; conditions: Compound concentration 10.0 uM
[37] = target: Ribosomal protein S6 kinase alpha-5 (Homo sapiens) (UniProt O75582); assay: MSK1(h) Millipore kinase panel; conditions: Compound concentration 10.0 uM
Ribosomal protein S6 kinase alpha-5 (Homo sapiens), sequence (O75582 whole entry, looked up): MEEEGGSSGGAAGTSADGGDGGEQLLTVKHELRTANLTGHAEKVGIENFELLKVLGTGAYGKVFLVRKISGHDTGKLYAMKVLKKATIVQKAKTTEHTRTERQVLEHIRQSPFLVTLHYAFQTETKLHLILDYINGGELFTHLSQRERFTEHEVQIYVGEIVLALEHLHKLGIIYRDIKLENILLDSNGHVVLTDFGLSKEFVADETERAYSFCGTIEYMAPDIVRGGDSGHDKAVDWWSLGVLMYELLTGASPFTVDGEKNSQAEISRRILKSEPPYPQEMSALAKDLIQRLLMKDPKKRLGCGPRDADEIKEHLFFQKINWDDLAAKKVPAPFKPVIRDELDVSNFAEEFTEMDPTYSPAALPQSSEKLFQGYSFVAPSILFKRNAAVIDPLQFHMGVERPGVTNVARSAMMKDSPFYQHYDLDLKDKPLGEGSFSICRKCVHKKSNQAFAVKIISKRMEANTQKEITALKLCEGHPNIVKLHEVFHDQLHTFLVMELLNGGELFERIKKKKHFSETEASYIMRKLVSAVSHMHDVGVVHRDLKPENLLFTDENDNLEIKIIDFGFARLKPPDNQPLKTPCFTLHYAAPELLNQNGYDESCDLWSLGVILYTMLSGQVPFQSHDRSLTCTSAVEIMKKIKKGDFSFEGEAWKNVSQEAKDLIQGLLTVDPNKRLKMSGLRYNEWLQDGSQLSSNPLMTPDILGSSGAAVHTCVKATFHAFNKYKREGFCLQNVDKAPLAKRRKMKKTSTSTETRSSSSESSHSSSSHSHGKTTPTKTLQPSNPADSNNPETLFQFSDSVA

[38] = target: Adenosine receptor A1 (Homo sapiens) (UniProt P30542); assay: A1 (h) CEREP panel; conditions: Compound concentration 1.0 uM
[39] = target: C-X-C chemokine receptor type 2 (Homo sapiens) (UniProt P25025); assay: IL-8B (h) (CXCR2) CEREP panel; conditions: Compound concentration 1.0 uM
C-X-C chemokine receptor type 2 (Homo sapiens), sequence (P25025 whole entry): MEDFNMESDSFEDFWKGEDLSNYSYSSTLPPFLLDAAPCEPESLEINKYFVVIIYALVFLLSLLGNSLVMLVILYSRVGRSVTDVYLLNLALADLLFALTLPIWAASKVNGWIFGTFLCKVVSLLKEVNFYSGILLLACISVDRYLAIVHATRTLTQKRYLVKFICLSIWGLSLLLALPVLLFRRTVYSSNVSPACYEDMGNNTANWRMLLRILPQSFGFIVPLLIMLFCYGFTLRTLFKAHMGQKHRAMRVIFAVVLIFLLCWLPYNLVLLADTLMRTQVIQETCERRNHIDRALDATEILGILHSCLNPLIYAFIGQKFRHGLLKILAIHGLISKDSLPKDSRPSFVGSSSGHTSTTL

[40] = target: D(1A) dopamine receptor (Homo sapiens) (UniProt P21728); assay: D1 (h) CEREP panel; conditions: Compound concentration 1.0 uM
[41] = target: Vasopressin V1a receptor (Homo sapiens) (UniProt P37288); assay: V1A (h) CEREP panel; conditions: Compound concentration 1.0 uM
[42] = target: Serine/threonine-protein kinase WNK2 (Homo sapiens) (UniProt Q9Y3S1); assay: WNK2(h) Millipore kinase panel; conditions: Compound concentration 10.0 uM
[43] = target: Mitogen-activated protein kinase kinase kinase 9 (Homo sapiens) (UniProt P80192); assay: MLK1(h) Millipore kinase panel; conditions: Compound concentration 10.0 uM
[44] = target: Tyrosine-protein kinase CSK (Homo sapiens) (UniProt P41240); assay: CSK(h) Millipore kinase panel; conditions: Compound concentration 10.0 uM
[45] = target: 5-hydroxytryptamine receptor 7 (Homo sapiens) (UniProt P34969); assay: 5-HT7 (h) CEREP panel; conditions: Compound concentration 1.0 uM
[46] = target: RAC-alpha serine/threonine-protein kinase (Homo sapiens) (UniProt P31749); assay: PKBα(h) Millipore kinase panel; conditions: Compound concentration 10.0 uM
[47] = target: D(2) dopamine receptor (Homo sapiens) (UniProt P14416); assay: D2 (h) CEREP panel; conditions: Compound concentration 1.0 uM
D(2) dopamine receptor (Homo sapiens), sequence (P14416 whole entry): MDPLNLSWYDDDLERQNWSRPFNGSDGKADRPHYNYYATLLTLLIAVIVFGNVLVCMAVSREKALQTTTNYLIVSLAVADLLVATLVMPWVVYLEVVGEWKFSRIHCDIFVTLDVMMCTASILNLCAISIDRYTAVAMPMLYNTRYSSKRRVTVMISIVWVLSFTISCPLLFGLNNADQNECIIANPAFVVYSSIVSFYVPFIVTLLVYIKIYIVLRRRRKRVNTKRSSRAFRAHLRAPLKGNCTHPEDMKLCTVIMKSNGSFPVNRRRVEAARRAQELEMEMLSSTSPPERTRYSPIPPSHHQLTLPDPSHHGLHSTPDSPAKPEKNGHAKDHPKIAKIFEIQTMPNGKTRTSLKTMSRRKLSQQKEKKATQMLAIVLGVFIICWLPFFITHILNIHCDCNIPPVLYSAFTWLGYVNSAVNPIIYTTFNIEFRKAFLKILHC

[48] = target: Melanocortin receptor 4 (Homo sapiens) (UniProt P32245); assay: MC4 (h) CEREP panel; conditions: Compound concentration 1.0 uM
[49] = target: RAC-gamma serine/threonine-protein kinase (Homo sapiens) (UniProt Q9Y243); assay: PKBγ(h) Millipore kinase panel; conditions: Compound concentration 10.0 uM
[50] = target: Cholecystokinin receptor type A (Homo sapiens) (UniProt P32238); assay: CCKA (h) (CCK1) CEREP panel; conditions: Compound concentration 1.0 uM
[51] = target: Tyrosine-protein kinase Fer (Homo sapiens) (UniProt P16591); assay: Fer(h) Millipore kinase panel; conditions: Compound concentration 10.0 uM
[52] = target: 5-hydroxytryptamine receptor 3A (Homo sapiens) (UniProt P46098); assay: 5-HT3 (h) CEREP panel; conditions: Compound concentration 1.0 uM
[53] = target: cGMP-dependent protein kinase 1 (Homo sapiens) (UniProt Q13976); assay: PKG1α(h) Millipore kinase panel; conditions: Compound concentration 10.0 uM
cGMP-dependent protein kinase 1 (Homo sapiens), sequence (Q13976 whole entry): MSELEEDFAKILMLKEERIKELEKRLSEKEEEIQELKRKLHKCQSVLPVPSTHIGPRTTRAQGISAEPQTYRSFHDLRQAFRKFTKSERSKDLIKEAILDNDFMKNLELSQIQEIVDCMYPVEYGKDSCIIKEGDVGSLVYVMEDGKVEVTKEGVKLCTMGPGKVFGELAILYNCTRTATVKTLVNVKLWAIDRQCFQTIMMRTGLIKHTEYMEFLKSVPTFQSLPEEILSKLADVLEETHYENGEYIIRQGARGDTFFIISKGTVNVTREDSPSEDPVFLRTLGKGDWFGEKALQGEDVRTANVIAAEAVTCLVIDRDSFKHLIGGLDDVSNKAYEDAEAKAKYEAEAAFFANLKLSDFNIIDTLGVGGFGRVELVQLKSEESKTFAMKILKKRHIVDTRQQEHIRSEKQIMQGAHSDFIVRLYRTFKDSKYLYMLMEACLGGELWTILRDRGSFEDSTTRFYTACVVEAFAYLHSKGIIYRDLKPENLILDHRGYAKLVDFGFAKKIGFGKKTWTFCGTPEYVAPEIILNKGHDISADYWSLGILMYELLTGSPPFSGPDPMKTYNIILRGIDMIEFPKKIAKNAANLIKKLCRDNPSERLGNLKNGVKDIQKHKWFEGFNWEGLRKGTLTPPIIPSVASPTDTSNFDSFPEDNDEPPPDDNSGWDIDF

Measured: inhibition

CC(C)c1cc(N2CC[C@@H](N)C2)nc(N)n1
inactive: [1] -2% | [2] 0% | [3] 7% | [4] < 10% | [5] -5% | [6] -5% | [7] 8% | [8] 13% | [9] < 10% | [10] < 10% | [11] 15% | [12] < 10% | [13] 6% | [14] < 10% | [15] < 10% | [16] < 10% | Homo sapiens 4% | [17] < 10% | [18] < 10% | [19] < 10% | [20] -6% | [21] < 10% | [22] 1% | [23] 3% | Rattus norvegicus 1% | [24] < 10% | [25] < 10% | [26] < 10% | [27] < 10% | [28] 16% | [29] -5% | [30] < 10% | [31] < 10% | [32] -3% | [33] -8% | [34] < 10% | [35] < 10% | [36] 8% | [37] 6% | [38] < 10% | [39] < 10% | [40] < 10% | [41] < 10% | [42] -5% | [43] 6% | [44] -9% | [45] < 10% | [46] -7% | [47] < 10% | [48] < 10% | [49] -3% | [50] < 10% | [51] -8% | [52] < 10% | [53] -2%
